Assay results: a melting point compilation (Tetko et al.)

Compound | melting point
CN(CC(=O)O)S(=O)(=O)c1ccc2c(c1)OCCO2 | 141 to 143 °C
CC(Cc1ccccc1)n1cccc1C(=O)O (stereo not given) | 78 to 80 °C
CC(NC(=O)c1ccc(Br)s1)C(=O)O (stereo not given) | 135 to 137 °C
O=C(O)c1cccc(OCC(F)F)n1 | 94 to 96 °C
COc1ccc(NS(=O)(=O)c2cc(N)ccc2N2CCCC2)cc1 | 178 to 182 °C
O=C(NS(=O)(=O)c1cccs1)c1ccccc1 | 92 to 94 °C
O=[N+]([O-])c1cc(S(=O)(=O)N2CCOCC2)ccc1Cl | 153 to 155 °C
NC(=S)C1CCCCC1 | 115 to 117 °C
Cc1ccc(-n2nc(C)c(NC(=O)OCC(F)(F)F)c2C)cc1 | 145 to 147 °C
CNC(C)(C#N)Cn1cc(Br)cn1 (stereo not given) | 33 to 35 °C
O=C(O)c1ccc(Oc2ccc(C(F)(F)F)cn2)cc1 | 218 to 220 °C
c1cc2[nH]ncc2cc1NC1CN2CCC1CC2 (stereo not given) | 192 to 194 °C
Cc1ccc(C(=O)O)c(Cl)c1C | 153 to 155 °C
Cc1nn(-c2ccccc2)cc1C(=O)O | 192 to 194 °C
CON(C)S(=O)(=O)c1ccc(C(=O)O)cc1 | 210 to 212 °C
Nc1ncc(Cc2ccccc2Cl)s1 | 97 to 99 °C
O=S1(=O)CCC(S(=O)(=O)Cl)CC1 | 175 to 177 °C
Cc1ccc(CNC(=O)C2CCNCC2)cc1F | 134 to 136 °C
Sc1n[nH]c(-c2cccnc2)n1 | 304 to 306 °C
Nc1ccc(Oc2ccccc2)cn1 | 67 to 69 °C
OC(O)c1nc(-c2ccccc2)no1 | 103 to 105 °C
Nc1ccc(Cl)c(C(=O)Nc2ccccc2)c1 | 115 to 117 °C
OC(c1ccccc1)(c1ccc(F)cc1)c1ccc(F)cc1 | 86 to 88 °C
O=C(O)CN1CC(=O)Oc2ccccc21 | 176 to 178 °C
COc1ccc(C(=O)O)cc1-c1ccccn1 | 226 to 228 °C

Compound | melting point
O=c1[nH]c(=O)c2ccccc2s1 | 292 to 294 °C
O=C(O)c1cccc(S(=O)(=O)N2CCc3sccc3C2)c1 | 207 to 209 °C
COC(=O)c1ccccc1CBr | 31 to 33 °C
CC(C)(C)OC(=O)NCC1CCC(C(=O)O)CC1 (stereo not given) | 132 to 134 °C
N#Cc1cccnc1N1CCCC1 | 36 to 38 °C
CCCC(NC(=O)NCc1ccc(Br)cc1)C(=O)O (stereo not given) | 160 to 162 °C
CCn1ccnc(Cl)c1=O | 52 to 54 °C
CC(C)(C)OC(=O)N1CCC(CC(=O)O)(C(=O)O)C1 (stereo not given) | 180 to 182 °C
NC(=O)c1ccccc1N1CCC(N)CC1 | 143 to 145 °C
COC(=O)c1cc2ccccn2c1 | 94 to 96 °C
CNCc1nnc[nH]1 | 91 to 93 °C
O=C(O)c1cccc(NS(=O)(=O)c2cccs2)c1 | 197 to 199 °C
Nc1ccccc1NS(=O)(=O)c1ccc(F)cc1 | 122 to 124 °C
Sc1nc(-c2ccccc2)c(-c2ccccc2)n1Cc1ccccc1 | 280 to 282 °C
O=C(O)CNC(=O)c1ccc(F)cc1 | 169 to 171 °C
CCOC(=O)C(=O)Nc1ccc(C)cc1 | 64 to 66 °C
Cc1ccc(C(=O)O)cc1S(=O)(=O)N1CCCCC1 | 179 to 181 °C
Cc1sc2[nH]c(=O)oc(=O)c2c1C | 199 to 201 °C
COC(=O)c1cccc(C)c1C#N | 69 to 71 °C
CC(=O)c1cc2ccccc2[nH]1 | 149 to 151 °C
CCN(CC)C(C(N)=O)c1ccccc1 (stereo not given) | 141 to 143 °C
CCOC(=O)C1=C(CC)Nc2ccccc2N=C1N | 152 to 154 °C
O=C(O)C1CCCN1C1CCNCC1 (stereo not given) | 197 to 199 °C
N#CC=C(Cl)c1cccc(OC(F)F)c1 | 45 to 47 °C
O=C(O)Cc1ccc(NC(=O)C2CC2)cc1 | 189 to 191 °C

Compound | melting point
N#CCc1c[nH]c2ncccc12 | 139 to 141 °C
NC(=O)CN1CC(O)CC1=O (stereo not given) | 133 to 135 °C
NC(=S)Nc1ccc2c(c1)OCCO2 | 211 to 213 °C
COc1ccc(CBr)cc1C#N | 119 to 121 °C
Nc1ccc2c(c1)N(CCO)CC2 | 59 to 61 °C
CNCCNS(=O)(=O)c1ccc(C)cc1 | 84 to 86 °C
Cc1ccc(-n2nc(C(=O)O)cc2-c2ccc(-c3ccccc3)cc2)cc1 | 205 to 207 °C
Cc1cc2ncc(Br)cn2n1 | 137 to 139 °C
CN(C)C(=O)c1ccc(N)cc1 | 151 to 153 °C
Cc1cccc(COc2cccc(C(=O)O)c2)c1 | 124 to 126 °C
O=C1CCCOc2c1ccc(Cl)c2Cl | 103 to 105 °C
CCOC(=O)c1c[nH]c2cc(OC)cc(OC)c2c1=O | 257 to 259 °C
O=C(O)c1cc(-c2cccc3ccccc23)nc2ccccc12 | 225 to 227 °C
N#Cc1cc(S(N)(=O)=O)ccc1Cl | 219 to 221 °C
Cc1nc2c(s1)C(O)CCC2 (stereo not given) | 80 to 82 °C
O=C1NCCOc2ccccc21 | 110 to 112 °C
O=C(O)CCC(=O)c1csc2ccccc12 | 139 to 141 °C
CCOC(=O)CCc1nnc(-c2ccc(Cl)cc2)o1 | 100 to 102 °C
NC(Cc1ccccc1)CN1CCOCC1 (stereo not given) | 54 to 56 °C
CCOC(=O)c1c[nH]n(C)c1=N | 95 to 97 °C
CN(C)C(N)=NC(=N)N | 223 to 226 °C
N#CCNC(=O)c1ccc(Br)cc1 | 170 to 172 °C
Cc1ccc(C(C)C(O)C(=O)O)cc1 (stereo not given) | 111 to 113 °C
O=C(O)C1(c2ccccc2)CCC1 | 105 to 107 °C
COc1ccc(N)cc1OCCN(C)C | 70 to 72 °C

Compound | melting point
CN(C)S(=O)(=O)c1ccc(CCl)o1 | 54 to 56 °C
OCc1ccc(N2CCN(c3ncccn3)CC2)c(F)c1 | 114 to 116 °C
Cc1cnoc1C(=O)O | 133 to 135 °C
O=C(O)c1ccc(OC2CCCCC2)cc1 | 184 to 186 °C
Nc1ccc(-c2cc[nH]n2)cc1 | 99 to 101 °C
Nc1nnc(-c2cccc(Br)c2)[nH]1 | 219 to 221 °C
CCc1c(C)nc2ccccc2c1N | 148 to 150 °C
Cc1cc(C)cc(NC(=O)CCl)c1 | 141 to 143 °C
Nc1ccccc1Oc1ccccc1N | 61 to 64 °C
CCOc1cc(Br)c(CC#N)cc1OCC | 68 to 70 °C
O=C(O)c1ccc(Oc2ccc(Cl)cc2)c(F)c1 | 128 to 130 °C
COc1ccc(Cl)cc1CC#N | 51 to 55 °C
COc1c(Br)cc(Br)cc1C=O | 93 to 96 °C
O=[N+]([O-])c1cc(S(=O)(=O)Cl)c(Cl)cc1F | 41 to 43 °C
Brc1cnc2nc3ccccc3n2c1 | 269 to 271 °C
Cc1ccc2ncc(C=O)n2c1 | 105 to 107 °C
CCOC(=O)c1cc(Cl)ccc1[N+](=O)[O-] | 37 to 39 °C
Cc1ccc(S(N)(=O)=O)cc1C(N)=O | 192 to 194 °C
O=C(O)c1ccc(NCCO)cc1 | 196 to 198 °C
CN(C)c1c(N)n(C)c(=O)[nH]c1=O | 161 to 163 °C
CCOC(=O)c1ncn(-c2ccccc2)n1 | 49 to 51 °C
CC(CO)Nc1nc2ccccc2[nH]1 (stereo not given) | 174 to 176 °C
CNC(=O)c1ccc(N)cc1Cl | 147 to 149 °C
Cc1cc(C=O)c(C)n1-c1cccc(F)c1 | 78 to 80 °C
COc1ccccc1OCC(=O)Nc1cccc(N)c1 | 104 to 106 °C

Compound | melting point
Cn1ccnc(Cl)c1=O | 118 to 120 °C
CC(c1ccc(F)cc1F)S(N)(=O)=O (stereo not given) | 93 to 95 °C
COc1cccc(Cc2nnc(N)s2)c1 | 104 to 106 °C
CC(C1CC1)n1ncc2c(C(=O)O)cc(C3CC3)nc21 (stereo not given) | 148 to 150 °C
O=C1Nc2c(ccc(Cl)c2F)C1=O | 200 to 202 °C
O=C(O)CCNC(=O)C1CCCC1 | 128 to 130 °C
O=C(O)c1nn(-c2ccccc2Cl)c2c1CCCC2 | 232 to 234 °C
OCc1cnns1 | 34 to 36 °C
O=C(O)CC(O)(c1ccccc1)C1CC1 (stereo not given) | 105 to 107 °C
NC(=S)N1CCCC1 | 140 to 142 °C
O=S(=O)(Cl)c1csc(-c2ccccc2)n1 | 86 to 88 °C
Cc1cc(C)n(-c2ccc(CC#N)cc2)n1 | 45 to 55 °C
O=C(O)C(O)C1CC1 (stereo not given) | 66 to 68 °C
O=C(O)c1ccccc1OCc1ccccc1Br | 129 to 131 °C
CC(C)c1cccc(OCC(=O)O)c1 | 65 to 67 °C
Fc1ccccc1-n1cnnc1S | 167 to 169 °C
Cc1ccc(-c2nc(C=O)co2)cc1 | 92 to 94 °C
COc1ccc2c(c1)CNC(c1ccccc1)C2 (stereo not given) | 90 to 92 °C
NCc1cnn(-c2ccc(F)cc2F)c1 | 49 to 51 °C
CN(c1ccccc1)S(=O)(=O)c1ccc(Cl)c(C(=O)O)c1 | 151 to 153 °C
Nc1cc(Br)cnc1Br | 137 to 139 °C
O=C(O)c1ccc(S(=O)(=O)Cl)c(Br)c1 | 206 to 208 °C
COc1ccc(C#N)cc1C | 49 to 51 °C
O=c1ccccn1Cc1ccc(Cl)c([N+](=O)[O-])c1 | 92 to 94 °C
N=C(N)NN=Cc1ccccc1 | 179 to 181 °C

Compound | melting point
CCOC(=O)C1CCCN1S(N)(=O)=O (stereo not given) | 123 to 125 °C
NC(=O)c1nc(Cl)ccc1N | 164 to 166 °C
O=C(O)CNC(=O)c1ccc(Cl)c([N+](=O)[O-])c1 | 190 to 192 °C
Nc1cc(C2CCCCC2)no1 | 127 to 129 °C
NC(=O)N1CCN2C(=O)NC(=O)C2C1 (stereo not given) | 250 to 252 °C
NC(=O)C1Cc2[nH]cnc2CN1 (stereo not given) | 249 to 251 °C
CC(=O)N(c1ccc(C(F)(F)F)cc1)c1nc(C=O)cs1 | 138 to 140 °C
N#Cc1ccc(-c2ccccc2)[nH]c1=O | 297 to 299 °C
CC1(C)Nc2ccccc2NC1=O | 179 to 181 °C
CC(O)(C(=O)O)C1CC1 (stereo not given) | 39 to 41 °C
O=C(O)c1ccc(Cl)c(S(=O)(=O)Nc2ccc(Cl)cc2)c1 | 214 to 216 °C
NC(=O)c1n[nH]c2ccc(N)cc12 | 199 to 201 °C
COc1ccc(C(=O)c2ccccc2Cl)c(OC)c1 | 61 to 63 °C
NC(=O)CC1CCCCC1 | 165 to 167 °C
CC(C(=O)O)N1C(=O)C2C3CCC(O3)C2C1=O (stereo not given) | 189 to 191 °C
COc1ccc2c(c1)CCC(=O)N2 | 141 to 143 °C
O=[N+]([O-])c1cccc(F)c1S(=O)(=O)Cl | 89 to 91 °C
CCNc1ccc(S(=O)(=O)N2CCOCC2)cc1N | 188 to 190 °C
O=C(O)CCCS(=O)(=O)N1CCCC1 | 130 to 132 °C
NC(=O)c1sc2cc(Cl)ccc2c1Cl | 269 to 271 °C
